Experimental data as given in patent US20160002316A1, “SERPINS: METHODS OF THERAPEUTIC BETA-CELL REGENERATION AND FUNCTION” (SANOFI, priority 2013, published 2016).

How the values were obtained:
[1] = tested on: primary mouse islets β-cells; experiment: Mouse islets cultured with recombinant SerpinB1, ovalbumin or elastase inhibitors, Ki67 immunostaining; format: cell-based; settings: for mouse islet β-cell proliferation in vitro: Sivelestat (50 μg/ml) or GW311616A (100 μg/ml), FIG. 25 C
Protocol: Five to six-week old male mouse islets were cultured in the presence of different molecules for 48 h. Islet β-cell replication was assessed by Ki67 immunostaining studies. A) Representative images of islets stimulated with 100 or 1000 ng/ml of human recombinant SerpinB1. B) Quantification of Ki67+ insulin+ cells in islets stimulated with 1 to 1000 ng/ml of rSerpinB1 or 1000 ng/ml of ovalbumin (OVA). C) Representative images (left panel) and quantification (right panel) of Ki67+ insulin+ islet cells stimulated with Sivelestat (50 μg/ml) or GW311616A (100 μg/ml). D) Representative images of human islets stimulated for 24 hours with Sivelestat or GW311616A or control conditions.
To test whether SerpinB1 is a β-cell growth factor, we cultured freshly isolated primary mouse islets in presence of various doses of recombinant human SerpinB1 or ovalbumin (SerpinB14) and evaluated β-cell proliferation by Ki67 immunofluorescent staining (known to those of ordinary skill in the art).
To address whether SerpinB1 acts directly to stimulate β-cell proliferation, we cultured mouse islets in the presence of various doses of human recombinant SerpinB1 and a control (ovalbumin), and evaluated β-cell proliferation by Ki67 immunofluorescence staining (FIG. 21 A).
(§1) A major substrate of SerpinB1 is neutrophil elastase. To investigate whether the proliferative action of SerpinB1 is mediated by antagonizing neutrophil elastase activity, we assessed the ability of the neutrophil elastase inhibitor, Sivelestat (Sivelestat is the International Nonproprietary Name (INN) as given by the World Health Organization (WHO); the chemical name is: N-{2-[({4-[(2,2-dimethylpropanoyl)oxy]phenyl}sulfonyl)amino]benzoyl}glycine), to stimulate islet β-cell proliferation in vitro.

[2] = tested on: islet β-cells; experiment: Daily oral gavage of GW311616A for 2 weeks, β-cell mass and replication; format: in vivo, mouse; settings: 2 mg/kg/day
Protocol: (§2) Five to six-week old mice were administrated with Sivelestat or GW311616A for 2 weeks. Islet β-cell and α-cell replication was assessed by immunostaining. A) Schematic of the experimental protocol of Sivelestat administration. B) Quantification of pancreatic sections harvested from animals stimulated with Sivelestat and immunostained for insulin/BrdU/DAPI or glucagon/BrdU/DAPI. C) Schematic of the experimental protocol of GW311616A delivery. D) Quantification of pancreatic sections dissected from GW311616A-treated males and immunostained for insulin/BrdU/DAPI or glucagon/BrdU/DAPI.
Five to six-week old male mice were daily gavaged with GW311616A or vehicle (water) for 2 weeks. Mice were injected during the second week with BrdU (100 mg/kg Body weight) and sacrificed 5 hour after last injection of BrdU. Pancreases and other tissues were harvested for morphometric studies. A) Schematic of the experimental protocol of GW311616 administration. B) Pancreatic sections harvested from animals stimulated with GW311616 were immunostained for insulin/BrdU/DAPI (upper panel) or glucagon/BrdU/DAPI (lower panel). C) Quantification of β-cell mass. D) Quantification of insulin+BrdU+ cells. E) Quantification of glucagon+BrdU+ cells. F-G) Representative images and quantification of nuclei BrdU+ in liver, kidney, spleen, visceral and subcutaneous adipose tissue and skeletal muscle tissue.
To explore whether increased β-cell replication secondary to enhanced SerpinB1 activity can be recapitulated in vivo, we used pharmacological compounds Sivelestat (Kawabata, et al., 1991) and GW311616A (Macdonald, et al., 2001), that are selective inhibitors of elastase, one of the major substrates of SerpinB1. Using osmotic pumps, we delivered a continuous infusion of Sivelestat for a 2-week period followed by evaluating the number of replicating β-cells by BrdU incorporation (FIG. 20A). […] In a second approach we gavaged mice with the NE inhibitor, GW311616A, at a dose of 2 mg/kg/day for 2 weeks (FIG. 20C and FIG. 22 A). […] Moreover, cell proliferation was not increased in extra-pancreatic tissues including liver, skeletal muscle, visceral and subcutaneous adipose tissue, spleen and kidney (FIGS. 22 F & G).
For Sivelestat administration, mice were anesthetized, and osmotic pumps (ALZET) containing 100 μl of either vehicle or Sivelestat (Santa Cruz) were implanted subcutaneously. Sivelestat was dissolved in 50% DMSO and was administered at a dose of 150 or 300 μg/kg/day. Control mice were infused with DMSO 50% alone. GW311616A was administered into mice by daily oral gavage for two weeks. Mice received either GW311616A (2 mg/kg body weight) or vehicle.

[3] = tested on: human islet β cells; experiment: Human islet studies, Ki67+ insulin+ cells; format: cell-based; settings: human islets, 24 hr
Protocol: Human islets were obtained from the Integrated Islet Distribution Program. All studies and protocols used were approved by the Joslin Diabetes Center's Committee on Human Studies (CHS#5-05). Upon arrival, islets were cultured overnight in Miami Media #1A (Cellgro). The islets were then starved in Final Wash/Culture Media (Cellgro, Manassas, Va.) for 3 hr prior to stimulation with serum (diluted to 10% v/v), LECM (diluted to 10% v/v), or HCM (diluted to 50% v/v) or Miami Media #1A supplemented with Sivelestat or GW311616A for 24 hr. Islets were used for immunostaining studies as described (El Ouaamari, et al., 2013).
Pancreases and islets were analyzed by immunostaining using anti-Ki67 (BD), anti-insulin (Abcam, Cambridge, Mass.), or anti-glucagon (Sigma-Aldrich, St. Louis, Mo.) antibodies. Quantification of replicating β- and α-cells was performed as described previously (El Ouaamari, et al., 2013).
In all experiments, cell counting was manually performed in a blinded fashion by a single observer. BrdU+ or Ki67+ β cells were assessed by immunofluorescence microscopy. Insulin+ cells showing nuclear DAPI staining were considered as β cells. Insulin+ cells showing nuclear colocalized staining for DAPI+ and Ki67+(or BrdU+) were counted as proliferating β cells. […]

[4] = tested on: human (EndoC-βH1) β-cells; experiment: EndoC-βH1 cells treated with Sivelestat, Ki67; format: cell-based; settings: 100 μg/ml
Excerpt: as §1

[5] = tested on: islet β-cells; experiment: Continuous infusion of Sivelestat by osmotic pump for 2 weeks, β-cell replication; format: in vivo, mouse; settings: 2-week infusion
Protocol: as §2
Five to six-week old male mice were continuously infused for 2 weeks with vehicle or Sivelestat at 150 or 300 μg/kg/day. Mice were injected during the second week with BrdU (100 mg/kg Body weight) and sacrificed 5 hour after last injection of BrdU. Pancreases were harvested for morphometric studies. A-B) Representative images and quantification of nuclei BrdU+ in insulin+ cells. C-D) Representative images and quantification of nuclei pHH3+ in insulin+ cells. E-F) Representative images and quantification of nuclei BrdU+ in glucagon+ cells. […]

CC(C)[C@@H]1C(=O)N(S(C)(=O)=O)[C@@H]2CCN(C(=O)/C=C/CN3CCCCC3)[C@H]21.Cl [GW311616A]
mouse islet β-cell proliferation in vitro [1]: directly increased | cell proliferation in extra-pancreatic tissues (liver, skeletal muscle, visceral and subcutaneous adipose tissue, spleen, kidney) [2]: not increased | α-cell proliferation by BrdU incorporation [2]: not α-cell proliferation | β-cell mass [2]: significantly enhanced β-cell mass | β-cell proliferation by BrdU incorporation [2]: increased β-cell proliferation | number of replicating insulin-producing cells (Ki67+ insulin+) [3]: significantly higher

CC(C)(C)C(=O)Oc1ccc(S(=O)(=O)Nc2ccccc2C(=O)NCC(=O)O)cc1 [Sivelestat, N-{2-[({4-[(2,2-dimethylpropanoyl)oxy]phenyl}sulfonyl)amino]benzoyl}glycine]
mouse islet β-cell proliferation in vitro [1]: directly increased | number of proliferating insulin+ cells ([1]; higher doses, e.g. 10 and 50 μg/ml): substantial increase | β-cell proliferation ([1]; low doses 1 and 5 μg/ml): do not enhance β-cell proliferation | number of Ki67 positive β-cells compared to non-treated cells [4]: increased the number | number of replicating insulin-producing cells (Ki67+ insulin+) [3]: significantly higher | proliferation of glucagon-producing α-cells ([5]; 300 μg/kg/day): did not significantly alter | effect on β-cells by pHH3 staining [5]: confirmed by pHH3 staining

B1: SerpinB1: recombinant human SerpinB1, serine peptidase inhibitor B1, 42 kD protein (protein)
chain: MEQLSSANTRFALDLFLALSENNPAGNIFISPFSISSAMAMVFLGTRGNTAAQLSKTFHFNTVEEVHSRFQSLNADINKRGASYILKLANRLYGEKTYNFLPEFLVSTQKTYGADLASVDFQHASEDARKTINQWVKGQTEGKIPELLASGMVDNMTKLVLVNAIYFKGNWKDKFMKEATTNAPFRLNKKDRKTVKMMYQKKKFAYGYIEDLKCRVLELPYQGEELSMVILLPDDIEDESTGLKKIEEQLTLEKLHEWTKPENLDFIEVNVSLPRFKLEESYTLNSDLARLGVQDLFNSSKADLSGMSGARDIFISKIVHKSFVEVNEEGTEAAAATAGIATFCMLMPEENFTADHPFLFFIRHNSSGSILFLGRFSSP
concentration at which the increase reached statistical significance ([1]; compared to ovalbumin at a similar concentration): 1 µg/mL | Ki67+ insulin+ cells ([1]; various doses (1 to 1000 ng/ml), 48 h): dose-dependent increase

B2: ovalbumin: ovalbumin (SerpinB14), control protein (protein, UniProt P01012 2-386, looked up)
Ovalbumin: GSIGAASMEFCFDVFKELKVHHANENIFYCPIAIMSALAMVYLGAKDSTRTQINKVVRFDKLPGFGDSIEAQCGTSVNVHSSLRDILNQITKPNDVYSFSLASRLYAEERYPILPEYLQCVKELYRGGLEPINFQTAADQARELINSWVESQTNGIIRNVLQPSSVDSQTAMVLVNAIVFKGLWEKAFKDEDTQAMPFRVTEQESKPVQMMYQIGLFRVASMASEKMKILELPFASGTMSMLVLLPDEVSGLEQLESIINFEKLTEWTSSNVMEERKIKVYLPRMKMEEKYNLTSVLMAMGITDVFSSSANLSGISSAESLKISQAVHAAHAEINEAGREVVGSAEAGVDAASVSEEFRADHPFLFCIKHIATNAVLFFGRCVSP
β-cell proliferation (Ki67) ([1]; 1 μg/ml): normal low β-cell proliferation
